In PubChem BioAssay (NCI):
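Step 1: Grow cells in 96-well plates. Step 2: Expose to compound for 48 hours at 5 concentrations. Step 3: Interpolate endpoints linearly; if unreached, use highest concentration. GI50 is the concentration that inhibits growth by half. TGI is the concentration that stops growth completely.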

How the values were obtained:
Experiment in all cases: growth of human tumour cells (NCI), 48 h
OVCAR-4 ovarian = test system: OVCAR-4 ovarian
SF-268 CNS = test system: SF-268 CNS
NCI-H460 lung = test system: NCI-H460 lung
SK-MEL-5 melanoma = test system: SK-MEL-5 melanoma
SNB-75 CNS = test system: SNB-75 CNS
OVCAR-3 ovarian = test system: OVCAR-3 ovarian
SR leukemia = test system: SR leukemia
T-47D breast = test system: T-47D breast

| SMILES | GI50 (OVCAR-4 ovarian) [µM] | TGI (OVCAR-4 ovarian) [µM] | GI50 (SF-268 CNS) [µM] | TGI (SF-268 CNS) [µM] | GI50 (NCI-H460 lung) [µM] | TGI (NCI-H460 lung) [µM] | GI50 (SK-MEL-5 melanoma) [µM] | TGI (SK-MEL-5 melanoma) [µM] | GI50 (SNB-75 CNS) [µM] | TGI (SNB-75 CNS) [µM] | GI50 (OVCAR-3 ovarian) [µM] | TGI (OVCAR-3 ovarian) [µM] | GI50 (SR leukemia) [µM] | TGI (SR leukemia) [µM] | GI50 (T-47D breast) [µM] | TGI (T-47D breast) [µM] |
| --- | --- | --- | --- | --- | --- | --- | --- | --- | --- | --- | --- | --- | --- | --- | --- | --- |
| O=C1Nc2ccc(CN3CCOC3=O)cc2/C1=C/c1cc(CN2CCOCC2)c[nH]1 | 26.6 | > 100 | > 86.5 | > 100 | 36.2 | > 100 | 19.5 | 43.5 | 52.8 | > 100 | 47.6 | > 100 | 7.43 | 73.9 | 24.9 | > 88.3 |
| CC(C)C[C@H]1C(=O)N2CCC[C@H]2[C@]2(O)O[C@](NC(=O)[C@@H]3C=C4c5cccc6[nH]c(Br)c(c56)C[C@H]4N(C)C3)(C(C)C)C(=O)N12 |  | > 100 |  | > 100 |  | > 100 |  | > 100 |  | > 100 |  | > 100 |  | > 100 |  | > 100 |
| Cc1ncc([N+](=O)[O-])n1CCNC(=O)Cn1ccnc1[N+](=O)[O-] |  |  |  | > 100 |  | > 100 |  | > 100 |  | > 100 |  | > 100 |  | > 100 |  | > 100 |
| O=C(c1ccccc1)c1ccc(O)c2ncccc12 | 2.96 | 11 | 3.11 | > 100 | 1.75 | 16.2 | 4.72 | 26.6 | 15 | 90.7 | 2.1 | 6.99 | 1.15 | > 100 | 3.14 | 15.3 |
| C=C1C(=O)O[C@H]2[C@H]1CC/C(COC(=O)C(=O)c1c[nH]c3ccc(Cl)cc13)=C\CC[C@@]1(C)O[C@@H]21 | 2.34 | 7.03 | 1.73 | 3.97 | 2.45 | 5.93 | 1.86 | 3.41 | 1.48 | 3.87 | 0.52 | 2.01 | 0.342 | 12.2 | 1.62 | 3.77 |
| C/C(=C1/N=C(c2ccccc2)OC1=O)c1ccccc1 |  | > 100 |  | > 100 |  | > 100 |  | > 100 |  | > 100 |  | > 100 |  | > 100 |  | > 100 |
| CCCC(CCC)Oc1ccc(CCCC2=C(O)c3ccccc3C(=O)C2=O)cc1 | 8.14 | 20.5 | 5.22 | 18.9 | 3.03 | 11.1 | 3.14 | 13.6 | 11.3 | 26.3 | 4.33 | 15 | 3.09 | 8.3 | 12 | 31.6 |
| Cc1nc2ccccc2c(/C=C/c2ccccc2)c1C(=O)/C=C/c1ccc(Cl)cc1 | 2.36 | > 100 | 3.15 | > 100 | 1.51 | 3.29 | 1.62 | 3.04 |  |  | 1.48 | 2.91 | 0.54 | 3.75 |  |  |
| Cc1cc(S(=O)(=O)Nc2nc3ccccc3[nH]2)c(SCc2ccccc2)cc1Cl |  |  | > 100 | > 100 | > 100 | > 100 | > 100 | > 100 |  |  | 14.2 | 58.4 | 26.1 | > 100 |  |  |
| C=C(CN(C)Cc1ccccc1)c1ccc(C(=O)Nc2ccccc2N)cc1 | 8.28 | > 50 | 5.98 | 16.8 | 19.9 | > 50 | 6.72 | 14.6 |  |  | 3.56 | 16 | 2.87 | > 50 | 0.611 | 4.75 |
| Cc1cccc2c(N=Nc3ccccc3[N+](=O)[O-])c(O)[nH]c12 |  | 16.9 |  | 33.3 |  | 30.6 |  | > 81.9 |  | 31.9 |  | 30 |  | 38.7 |  | 21.9 |
| CNC1=CC(=O)C2=C(C1=O)C1C3=C(C(=O)C(Br)=C(OC)C3=O)C2c2ccccc21 (stereo not given) | 2.3 | 15.6 | 1.87 | 10.3 | 11.1 | > 50 | 5.46 | 16.9 | 5.69 | 18.2 | 1.5 | 3.1 |  |  | 1.44 | 15.7 |
| COc1cc2c(c(OC)c1OC)C(=O)c1c-2n(CCCN=[N+]=[N-])c(=O)c2cc([N+](=O)[O-])ccc12 | 46.8 | > 100 | 29.8 | > 100 | 58.2 | > 100 | > 100 | > 100 | 19.4 | 54.9 | > 100 | > 100 | 16.3 | 41.9 | > 100 | > 100 |
| NC(=NCCO)c1ccc(N2CCCN(c3ccc(C(N)=NCCO)cc3)CC2)cc1 | > 100 | > 100 |  |  |  |  |  |  | > 100 | > 100 | > 100 | > 100 |  |  | > 100 | > 100 |
| CC(=O)Oc1ccccc1C(=O)NCCC[Se]C#N | 3.62 | 25.7 | 1.84 | 4.06 | 1.69 | 4.52 |  |  | 1.88 | 4.92 |  |  | 2.02 | 9.4 | 3.19 | 17.8 |
| Oc1c(Cl)cc(CN(Cc2cc(Cl)c(O)c(Cl)c2)C2CCCCC2)cc1Cl |  | > 100 |  | > 100 |  | > 100 |  | > 100 |  | > 100 |  | > 100 |  | > 100 |  | > 100 |
| CCOc1ccc(NC(=O)c2cc3ccccc3cc2O)cc1 | > 100 | > 100 | 64.8 | > 100 | > 100 | > 100 | > 100 | > 100 | 34.9 | > 100 | > 100 | > 100 | 22.8 | > 100 | > 100 | > 100 |
| O=C(O)c1nnsc1-c1csnn1 |  | > 100 |  | > 100 |  | > 100 |  | > 100 |  | > 100 |  | > 100 |  | > 100 |  | > 100 |
| Nc1cc(N)cc(Cc2ccccc2)c1 |  | > 100 |  | > 100 |  | > 100 |  | > 100 |  |  |  | > 100 |  | > 100 |  | > 100 |
